US11833229B2, “Labeling precursors with squaric acid coupling” (SCV—SpezialChemikalienVertrieb GmbH, priority 2019, dated 2023)

Assays:
[1] = tested on: LNCap tumor; assay: Ex vivo activities of [44Sc]Sc-AAZTA.QS.PSMA with and without 2-PMPA blocking; assay type: in vivo, mice; details: for Ex vivo activity kindneys: kidneys
Experimental: The radiotracer [^44Sc]Sc-AAZTA.QS.PSMA was further examined in vivo in three mice, each carrying an LNCap tumor. In addition blocking tests were carried out on one of the mice. […] The same applies to the kidneys.

[2] = Stability of [44Sc]Sc-AAZTA.QS.PSMA; assay type: in vitro ADME; details: over a period of 24 hours
Experimental: Similar to DATA, the AAZTA chelator can also be labeled with radio nuclides such as ^44Sc and ^68Ga under mild conditions. In the instant example, the radioisotope ^44Sc is used and the properties of the radiotracer [^44Sc]Sc-AAZTA.QS.PSMA are investigated. The synthesis shown in FIG. 44 was readily carried out with high yield. […] The stability of [^44Sc]Sc-AAZTA.QS.PSMA exceeds 95% over a period of 24 hours (FIG. 46).

## O=C(O)CCC(NC(=O)NC(CCCCNc1c(NCCNC(=O)CCCCC2(N(CC(=O)O)CC(=O)O)CN(CC(=O)O)CCN(CC(=O)O)C2)c(=O)c1=O)C(=O)O)C(=O)O.[44Sc+3] (stereo not shown) [^44Sc.AAZTA.QS.KuE]
[1]; Block (+PMPA)
  Ex vivo activity LN: 0.39 % ID/g
  Ex vivo activity blood: 0.34 % ID/g
  Ex vivo activity bone: 0.10 % ID/g
  Ex vivo activity heart: 0.11 % ID/g
  Ex vivo activity kindneys: 7.97 % ID/g
  Ex vivo activity liver: 0.16 % ID/g
  Ex vivo activity lung: 0.06 % ID/g
  Ex vivo activity muscle: 0.05 % ID/g
  Ex vivo activity salivary glands: 0.11 % ID/g
  Ex vivo activity small intestine: 0.35 % ID/g
  Ex vivo activity spleen: 0.15 % ID/g
  Ex vivo activity tumor: 0.53 % ID/g
[1]; mouse (1), no blocking
  Ex vivo activity LN: 1.33 % ID/g
  Ex vivo activity blood: 0.96 % ID/g
  Ex vivo activity bone: 0.46 % ID/g
  Ex vivo activity heart: 0.41 % ID/g
  Ex vivo activity kindneys: 119.86 % ID/g
  Ex vivo activity liver: 0.42 % ID/g
  Ex vivo activity lung: 1.31 % ID/g
  Ex vivo activity muscle: 0.38 % ID/g
  Ex vivo activity salivary glands: 0.51 % ID/g
  Ex vivo activity small intestine: 0.62 % ID/g
  Ex vivo activity spleen: 6.19 % ID/g
  Ex vivo activity tumor: 14.73 % ID/g
[1]; mouse (2), no blocking
  Ex vivo activity LN: 0.38 % ID/g
  Ex vivo activity blood: 0.41 % ID/g
  Ex vivo activity bone: 0.29 % ID/g
  Ex vivo activity heart: 0.14 % ID/g
  Ex vivo activity kindneys: 42.76 % ID/g
  Ex vivo activity liver: 0.16 % ID/g
  Ex vivo activity lung: 0.59 % ID/g
  Ex vivo activity muscle: 0.13 % ID/g
  Ex vivo activity salivary glands: 0.18 % ID/g
  Ex vivo activity small intestine: 0.22 % ID/g
  Ex vivo activity spleen: 1.15 % ID/g
  Ex vivo activity tumor: 14.14 % ID/g
[2]
  stability: exceeds 95%
